Results from patent US12473295B2, “Substituted straight chain spiro derivatives” (Janssen Pharmaceutica NV, priority 2019, dated 2025).
Structures can show the parent of a compound that is named as a salt.

Columns and labels:
[1] = Metabolic stability in human liver microsomes; assay type: in vitro ADME; conditions: human liver microsomes 0.5 mg/mL, 1 μM test compound, pH 7.4; read-out: Human LM Clint
Experimental: 4) Metabolic Stability in Human/Mouse Liver Microsomes
The objective of this study is to measure in vitro metabolic stability of test compound(s) in human and mouse liver microsomes and provide quantitative information on the rate of metabolic turnover (i.e. determination of the apparent intrinsic clearance of test).
Test items were prepared at a stock concentration of 10 mM in DMSO. For determination of metabolic turnover, a final working solution was prepared by adding 2 μL of 10 mM DMSO stock solution for test compound or positive control compounds to 198 μL of acetonitrile (100 μM final concentration).
Incubations were performed as follows: First, liver microsomes were thawed on ice and a master solution containing liver microsomes in 100 mM PBS (phosphate-buffered saline) at pH 7.4 is prepared. Next, the liver microsomes solution was added to the incubation plates and 10 mM NADPH (Nicotinamide-adenine dinucleotide phosphate) was added (MW: 833.4 g/mol; Roche Diagnostics GmbH, Germany. Dissolved in phosphate buffer (100 mmol/L, pH 7.4)). The mixture was mixed for 10 seconds and pre-warmed in the incubation plate at 37° C. for 10 minutes. The metabolic reaction was initiated with the addition of 5 μL of the 100 μM working solution for test compound or positive control compounds to incubation plate (final test item concentration=1 μM). The reaction final mixture should contain 1 mM NADPH, 0.5 mg/mL microsomes protein and 1 μM test compound or positive control compound in 100 mM PBS at pH 7.4. The percentage of organic solvent in incubation mixture is 1% with DMSO ≤0.02%.
The reaction was quenched by transferring 50 μL of the incubated mixture at selected time points into the quenching plate containing 200 μL of cold methanol. After sampling of all the timepoints the quenching plate was centrifuged at 4000 rpm for 40 minutes to precipitate protein. A total of 90 μL of the supernatant was transferred to an analysis plate and ultra-pure H2O water is added into each well for LC/MS/MS analysis. All incubations and analysis were performed in duplicate.
All calculations were carried out using Microsoft Excel. The slope value, k, was determined by linear regression of the natural logarithm of the remaining percentage of the parent drug vs. incubation time curve.
The in vitro half-life (in vitro tin) was determined from the slope value: in vitro t1/2=−(0.693/k)
Conversion of the in vitro tin (in min) into the in vitro intrinsic clearance (in vitro CLint, in μL/min/mg proteins) was done using the following equation: […]

[2] = target: menin/MLL (terbium chelate-labeled menin, FITC-MBM1 peptide) (Homo sapiens (Human), UniProt O00255); experiment: Menin/MLL homogenous time-resolved fluorescence (HTRF) assay; assay type: binding; conditions: HTRF-30 min incubation IC50, 30 min incubation;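 further: IC50 from percent inhibition of HTRF signal, normalized between wells without competitor and wells with a saturating competitor that displaces FITC-MBM1 from His-tagged menin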
menin/MLL (terbium chelate-labeled menin, FITC-MBM1 peptide), sequence (O00255 other isoform, or with tags, fused parts or gaps): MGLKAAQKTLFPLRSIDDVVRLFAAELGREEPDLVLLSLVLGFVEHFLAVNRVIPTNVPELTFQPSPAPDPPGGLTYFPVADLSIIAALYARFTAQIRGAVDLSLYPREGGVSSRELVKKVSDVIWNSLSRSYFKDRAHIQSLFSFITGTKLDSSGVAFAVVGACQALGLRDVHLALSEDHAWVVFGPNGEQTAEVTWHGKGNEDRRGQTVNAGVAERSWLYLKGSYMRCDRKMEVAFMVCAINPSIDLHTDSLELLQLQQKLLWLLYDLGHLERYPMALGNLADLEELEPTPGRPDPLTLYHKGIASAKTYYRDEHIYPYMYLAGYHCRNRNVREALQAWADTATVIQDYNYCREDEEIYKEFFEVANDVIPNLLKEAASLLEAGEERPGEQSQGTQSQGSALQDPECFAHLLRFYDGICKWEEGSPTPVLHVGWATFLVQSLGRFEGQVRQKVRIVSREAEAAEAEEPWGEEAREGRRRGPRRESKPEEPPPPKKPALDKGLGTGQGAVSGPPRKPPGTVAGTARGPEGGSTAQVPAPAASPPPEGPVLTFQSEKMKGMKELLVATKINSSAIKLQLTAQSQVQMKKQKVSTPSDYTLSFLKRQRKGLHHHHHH

MOLM14 cells = experiment: Proliferation assay (spheroid growth, 8 days), MOLM14; assay type: cell-based, human; conditions: Homo sapiens, MOLM-14, […], MOLM14, 8 days; read-out: spheroid assay_OneTime MOLM14 IC50;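 further: spheroid size read as confluence by live-cell imaging, compounds added at a range of concentrations with 0.3% DMSO, DMSO-treated wells = 0%, highest reference dose = low control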
MEIS1 mRNA = MEIS1 mRNA expression assay (Quantigene Singleplex) in MOLM14 cells; assay type: cell-based, human; conditions: Homo sapiens, MOLM-14, 48 h, 48 hours incubation;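 further: MEIS1 transcript levels read by probe hybridization and normalized to RPL28 mRNA, with IC50 fitted to fold changes across a rising compound concentration series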
hERG = hERG (Homo sapiens (Human), UniProt Q12809); experiment: Effect on membrane potassium current IKr in hERG-transfected HEK293 cells, Protocol 2 (SyncroPatch 384PE); assay type: cell-based; conditions: Protocol 2, hERG-transfected HEK293 cells
hERG, sequence (Q12809 whole entry): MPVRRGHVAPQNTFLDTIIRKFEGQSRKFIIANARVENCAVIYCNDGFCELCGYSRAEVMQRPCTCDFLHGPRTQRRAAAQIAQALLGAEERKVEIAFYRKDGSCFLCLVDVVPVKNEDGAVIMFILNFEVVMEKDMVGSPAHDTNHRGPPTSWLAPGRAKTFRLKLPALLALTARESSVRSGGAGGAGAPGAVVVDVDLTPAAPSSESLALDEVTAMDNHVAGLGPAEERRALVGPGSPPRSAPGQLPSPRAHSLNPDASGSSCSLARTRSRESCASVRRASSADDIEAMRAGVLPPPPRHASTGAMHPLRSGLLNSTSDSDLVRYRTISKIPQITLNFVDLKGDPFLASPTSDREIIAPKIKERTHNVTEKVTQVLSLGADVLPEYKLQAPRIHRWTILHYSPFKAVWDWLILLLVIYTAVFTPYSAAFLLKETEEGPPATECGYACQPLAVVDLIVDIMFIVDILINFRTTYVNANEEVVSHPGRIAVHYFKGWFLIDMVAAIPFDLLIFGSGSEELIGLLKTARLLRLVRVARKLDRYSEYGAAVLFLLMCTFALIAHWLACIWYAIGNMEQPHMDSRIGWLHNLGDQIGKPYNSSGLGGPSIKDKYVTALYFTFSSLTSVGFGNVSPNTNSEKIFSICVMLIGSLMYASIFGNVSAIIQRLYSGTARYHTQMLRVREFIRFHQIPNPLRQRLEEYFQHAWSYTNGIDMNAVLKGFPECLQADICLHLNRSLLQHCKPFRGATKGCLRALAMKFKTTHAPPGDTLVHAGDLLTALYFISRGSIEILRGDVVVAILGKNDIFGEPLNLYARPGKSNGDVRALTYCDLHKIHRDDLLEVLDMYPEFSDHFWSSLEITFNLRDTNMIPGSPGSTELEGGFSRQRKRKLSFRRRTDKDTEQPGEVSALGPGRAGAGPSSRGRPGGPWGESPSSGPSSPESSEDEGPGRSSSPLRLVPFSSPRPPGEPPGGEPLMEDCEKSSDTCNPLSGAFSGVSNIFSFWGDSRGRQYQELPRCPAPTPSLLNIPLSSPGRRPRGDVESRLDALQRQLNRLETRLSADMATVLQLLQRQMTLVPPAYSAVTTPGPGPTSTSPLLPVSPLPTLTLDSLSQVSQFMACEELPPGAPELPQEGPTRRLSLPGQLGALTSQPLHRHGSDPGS
Experimental: 8) Effect on the Membrane Potassium Current IKr in hERG Transfected Cell Lines
The compound, vehicle control and positive control were tested on hERG-transfected HEK293 cells. A human embryonic kidney cell line (HEK293) with a stable transfection of hERG (Zhou Z et al. Biophysical Journal 1998. 74, 230-241; McDonald T. V. et al, Nature 1997. 388, 289-292) was used (University of Wisconsin, Madison, USA). The cells were kept in culture in MEM (Minimum Essential Medium, Gibco) which was supplemented with (amounts indicated added to 500 ml MEM): 5 ml L-Glutamine-Penicillin-Streptomycin (Sigma), 50 ml Fetal Bovine serum (Bio-Whittaker), 5 ml Non-essential Amino Acids 100× (Gibco), 5 ml sodium pyruvate 100 mM (Gibco) and 4 ml geneticin 50 mg/ml (Gibco) using T175 flasks. The cells were incubated at 37° C. in 5% CO2 atmosphere (in air).
Cell Harvesting for Assay
Cells were harvested as described below using Accumax™ (Sigma) as the dissociating reagent. Cells were then resuspended in a mixture of 33% DMEM/F12 (Dulbecco's Modified Eagle Medium/Nutrient Mixture F-12—Sigma) media/67% extracellular physiological solution.
The flasks were washed twice carefully with ˜5-10 ml phosphate buffered saline (PBS) (Gibco™) containing 2 mM EDTA (Ethylenediaminetetraacetic acid) (Sigma). The cells were dissociated using ˜3 ml of Accumax™ (cell detachment solution) and incubated for ˜5 to 10 min. at 37° C. Cold external physiological solution (2-5 ml) was added and the flasks are incubated at ˜4° C. for 5-10 min. Then, the cell suspension in each flask was gently dissociated with a 5 ml pipette. The cell suspension was transferred to a low binding petri-dish (˜[…]). Each flask was washed with ˜additional 5 ml cold external physiological solution and this solution was also added to the petri-dish. The petri-dish was then incubated for another 5 to 10 minutes at ˜4° C. After another gentle dissociation of the cell suspension in the petri dish, the cells were transferred to a reservoir kept on an orbital shaker at 200 rpm at 16° C. Before experiments were performed, the cells recovered for ˜20 min.
A 10 mM solution of the compound was used and plated in a 384 well plate. Aliquots of the stock solutions are diluted with the recording solution (see section 3) using automated liquid handling (Biomek FXP; final DMSO concentration: 0.03 to 0.3%). A standard range of screening concentrations was used ranging from 1 μM to 30 μM.
A positive control (E-4031) was included within each run to evaluate the sensitivity of the assay.
External and Intracellular Solutions Used in the Experiments
In the table below the composition of the intracellular and external buffer solutions is shown in [mM] (“NMDG” means N-methyl-D-glucamine)
The whole cell patch clamp technique on transfected cells allows the study of ion-channels with no—or limited interference from other ion-channels. The effects of the compounds on the hERG current were studied with an automated planar patch clamp system, SyncroPatch 384PE (Obergrussberger et al, Journal of Laboratory Automation 2016. 21 (6). 779-793). All cells were recorded in the whole cell mode of the patch clamp technique. The module is incorporated in a liquid handling pipetting robot system, Biomek FXP, for application of cells and compounds, vehicle control and positive control.
The different concentrations of the compounds were applied in two cumulatively increasing concentrations for the compounds (1 μM and 10 μM, and 3 μM and 30 μM, respectively). The hERG current was determined as the maximal tail current at −30 mV and percent inhibition upon compound or vehicle and positive control addition was reported.
After cells are caught onto the individual holes of the recording chips using the chip fill solution, the seal is increased with the seal enhancer solution (increased [Ca^2+]; then the cells were washed twice with recording solution before using a pressure protocol to go into the whole cell mode. […]

| SMILES | microsomal CLint at 1 μM [1] [µL/min/mg] | IC50 [2] [nM] | IC50 (MOLM14 cells) [nM] | IC50 (MEIS1 mRNA) [nM] | IC50 (hERG) [nM] |
| --- | --- | --- | --- | --- | --- |
| CC(C)[C@@H](CCC(C)(C)N)N1CC2(CCN(c3ncnnc3Oc3ccc(F)cc3-c3cncnc3C3CC3)C2)C1 (single isomer, unassigned) [Compound 37, (*R)-5-(6-(6-(2-(4-cyclopropylpyrimidin-5-yl)-4-fluorophenoxy)-1,2,4-triazin-5-yl)-2,6-diazaspiro[3.4]octan-2-yl)-2,6-dimethylheptan-2-amine] | < 7.5 | 0.12 | 40 | 39 | – |
| COCCNCCC[C@H](C(C)C)N1CC2(CCN(c3ncnnc3Oc3ccc(F)cc3C(=O)N(C(C)C)C(C)C)C2)C1 (single isomer, unassigned) [Compound 99, (*R)-5-fluoro-N,N-isopropyl-2-((5-(2-(6-((2-methoxyethyl)amino)-2-methylhexan-3-yl)-2,6-diazaspiro[3.4]octan-6-yl)-1,2,4-triazin-6-yl)oxy)benzamide oxalate] | 27 | 0.2 | 8.5 | 26 | > 30200 |
| CCN(C(=O)c1cc(F)ccc1Oc1nncnc1N1CCC2(C1)CN([C@H](CCCN)C(C)C)C2)C(C)C [Compound 1, (R)-2-((5-(2-(6-amino-2-methylhexan-3-yl)-2,6-diazaspiro[3.4]octan-6-yl)-1,2,4-triazin-6-yl)oxy)-N-ethyl-5-fluoro-N-isopropylbenzamide formate] | < 7.5 | 0.13 | 230 | 75 | – |
| CCN(C(=O)c1cc(F)ccc1Oc1nncnc1N1CCC2(C1)CN([C@H](CCCNCC(OC)OC)C(C)C)C2)C(C)C.O=C(O)/C=C/C(=O)O [Compound 104, (R)-2-((5-(2-(6-((2,2-dimethoxyethyl)amino)-2-methylhexan-3-yl)-2,6-diazaspiro[3.4]octan-6-yl)-1,2,4-triazin-6-yl)oxy)-N-ethyl-5-fluoro-N-isopropylbenzamide fumarate] | 19 | 0.074 | 6.7 | 15 | > 30200 |
| CCN(C(=O)c1cc(F)ccc1Oc1nncnc1N1CCC2(C1)CN([C@H](CCCN[C@H](C)COC)C(C)C)C2)C(C)C.O=C(O)/C=C/C(=O)O [Compound 112, N-ethyl-5-fluoro-N-isopropyl-2-(5(2-((R)-6-(((R)-1-methoxypropan-2-yl)amino)-2-methylhexan-3-yl)-2,6-diazaspiro[3.4]octan-6-yl)-1,2,4-triazin-6-yl)oxy)benzamide fumarate] | 17 | 0.049 | 9.8 | 9 | > 30200 |
| CCN(C(=O)c1cc(F)ccc1Oc1nncnc1N1CCC2(C1)CN([C@H](CCCNCCC(F)F)C(C)C)C2)C(C)C.O=C(O)/C=C/C(=O)O [Compound 114, (R)-2-(5-(2-(6-((3,3-difluoropropyl)amino)-2-methylhexan-3-yl)-2,6-diazaspiro[3.4]octan-6-yl)-1,2,4-triazin-6-yl)oxy)-N-ethyl-5-fluoro-N-isopropylbenzamide fumarate] | 26 | 0.05 | 14 | 22 | > 30200 |
| CCN(C(=O)c1cc(F)ccc1Oc1nncnc1N1CCC2(C1)CN([C@H](CCCN(C)CCNC(C)=O)C(C)C)C2)C(C)C.O=C(O)/C=C/C(=O)O [Compound 245, (R)-2-((5-(2-(6-((2-acetamidoethyl)(methyl)amino)-2-methylhexan-3-yl)-2,6-diazaspiro[3.4]octan-6-yl)-1,2,4-triazin-6-yl)oxy)-N-ethyl-5-fluoro-N-isopropylbenzamide fumarate] | 18 | 0.26 | 73 | 140 | > 30200 |
| CCN(C(=O)c1cc(F)ccc1Oc1nncnc1N1CCC2(C1)CN([C@H](CCCN(C)CCC(=O)N(C)C)C(C)C)C2)C(C)C [Compound 246, (R)-2-((5-(2-(6-((3-(dimethylamino)-3-oxopropyl)(methyl)amino)-2-methylhexan-3-yl)-2,6-diazaspiro[3.4]octan-6-yl)-1,2,4-triazin-6-yl)oxy)-N-ethyl-5-fluoro-N-isopropylbenzamide formate] | – | 0.063 | 60 | 180 | > 30200 |
